Numbered stars: 1 amine (or outer) side, 2 acyl side, 3 side chain; on linkers, the order of the positions; unused ones are H or OH. Bridge positions count the residues as written; N and C are the ends. Square brackets hold non-standard residues; d marks the D form. Peptide text beside a SMILES is read from it. I, II: the chains in the order shown. X1 = O=C(c1ccc(N=Nc2ccc(C(=O)[*:2])cc2)cc1)[*:1]; X2 = O=C(c1ccc(N=Nc2ccc(N[*:1])cc2)cc1)[*:2]; X3 = c1cc(N[*:1])ccc1N=Nc1ccc(N[*:2])cc1
Experiments:
[1] = not given; remark: listed apart in the source
[2] = Turbidity measurement (OD600) of temperature-dependent phase separation, Tt; assay type: physicochemical; details: even at 2.38 mM (5.00 mg/mL) in PBS; turbidity OD600
Method: The ability of the ELP–azobenzene conjugates to self-assemble was investigated by using turbidity measurements. In addition, we evaluated whether the photoisomerization of the azobenzene moieties induced differences in the aggregation ability of these analogues. Each peptide analogue was dissolved in PBS at different concentrations according to its water solubility. To quantitatively evaluate the aggregation ability, the transition temperature (T t) of the peptides was calculated from the change in optical density at a wavelength of 600 nm (OD600) associated with the increasing temperature (Table and Figure ).
The temperature-dependent self-assembly property of synthesized peptides was evaluated by using a JASCO V-660 spectral photometer (JASCO Co.). Each peptide was dissolved in PBS buffer or phosphate buffer solutions at various concentrations. Three types of phosphate buffers with the same ionic strength (μ = 0.100) but different pH (pH 7.4, 2.1, and 11.5) were prepared: phosphate buffer (pH 7.4, 29.4 mM Na2HPO4, 11.7 mM NaH2PO4), phosphate buffer (pH 2.1, 10.0 mM NaH2PO4, 10.5 mM phosphoric acid), and phosphate buffer (pH 11.5, 9.58 mM Na3PO4, 14.2 mM Na2HPO4). Turbidity was measured at 600 nm with increasing or decreasing temperature at a rate of 0.5 °C/min from 5 °C. The measurements were performed for the dark-adapted solution and after successive irradiation with UV light, visible light, and UV light. Each assay was repeated three times with different peptide solutions that were prepared separately. The phase separation property was described by the phase transition temperature (T t), which is the temperature at which the turbidity of the solution reaches half its maximum value.

[3] = Particle size distribution by dynamic light scattering (DLS); assay type: physicochemical; details: PBS
[4] = Water solubility (observation); assay type: physicochemical; details: qualitative observation

| Structure (SMILES) | peak wavelength n–π* | peak wavelength π–π* [1] | phase separation in PBS [2] | self-assembly in dark-adapted solution (DLS) [3] | water solubility [4] |
| --- | --- | --- | --- | --- | --- |
| CC(C)[C@H](NC(=O)CNC(=O)[C@@H]1CCCN1C(=O)[C@H](Cc1ccccc1)NC(=O)CNC(=O)[C@@H](NC(=O)CNC(=O)[C@@H]1CCCN1C(=O)[C@@H](N)Cc1ccccc1)C(C)C)C(=O)NCC(=O)N[C@@H](CC(=O)O)C(=O)Nc1ccc(N=Nc2ccc(NC(=O)[C@H](CC(=O)O)NC(=O)CNC(=O)[C@@H](NC(=O)CNC(=O)[C@@H]3CCCN3C(=O)[C@H](Cc3ccccc3)NC(=O)CNC(=O)[C@@H](NC(=O)CNC(=O)[C@@H]3CCCN3C(=O)[C@@H](N)Cc3ccccc3)C(C)C)C(C)C)cc2)cc1 (I: H-FPGVGFPGVGD / II: H-FPGVGFPGVGD; linker I:C-II:C via X3) | 450 nm | 364 nm |  |  |  |
| CC(C)[C@H](NC(=O)CNC(=O)[C@@H]1CCCN1C(=O)[C@H](Cc1ccccc1)NC(=O)CNC(=O)[C@@H](NC(=O)CNC(=O)[C@@H]1CCCN1C(=O)[C@H](Cc1ccccc1)NC(=O)c1ccc(N=Nc2ccc(C(=O)N[C@@H](Cc3ccccc3)C(=O)N3CCC[C@H]3C(=O)NCC(=O)N[C@H](C(=O)NCC(=O)N[C@@H](Cc3ccccc3)C(=O)N3CCC[C@H]3C(=O)NCC(=O)N[C@H](C(=O)NCC(=O)O)C(C)C)C(C)C)cc2)cc1)C(C)C)C(=O)NCC(=O)O [Azb-2(F2)] (I: FPGVGFPGVG-OH / II: FPGVGFPGVG-OH; linker I:N-II:N via X1) |  |  | did not exhibit phase separation | did not exhibit self-assembly |  |
| CC(C)[C@H](NC(=O)CNC(=O)[C@@H]1CCCN1C(=O)[C@H](Cc1ccccc1)NC(=O)CNC(=O)[C@@H](NC(=O)CNC(=O)[C@@H]1CCCN1C(=O)[C@H](Cc1ccccc1)NC(=O)c1ccc(N=Nc2ccc(NC(=O)CNC(=O)[C@@H](NC(=O)CNC(=O)[C@@H]3CCCN3C(=O)[C@H](Cc3ccccc3)NC(=O)CNC(=O)[C@@H](NC(=O)CNC(=O)[C@@H]3CCCN3C(=O)[C@@H](N)Cc3ccccc3)C(C)C)C(C)C)cc2)cc1)C(C)C)C(=O)NCC(N)=O [F2-Azb-F2-NH2] (H-FPGVGFPGVG[X2]FPGVGFPGVG-NH2) | 450 nm | 356 nm |  |  | low water solubility |
| CC(C)[C@H](NC(=O)CNC(=O)[C@@H]1CCCN1C(=O)[C@H](Cc1ccccc1)NC(=O)CNC(=O)[C@@H](NC(=O)CNC(=O)[C@@H]1CCCN1C(=O)[C@H](Cc1ccccc1)NC(=O)c1ccc(N=Nc2ccc(NC(=O)CNC(=O)[C@@H](NC(=O)CNC(=O)[C@@H]3CCCN3C(=O)[C@H](Cc3ccccc3)NC(=O)CNC(=O)[C@@H](NC(=O)CNC(=O)[C@@H]3CCCN3C(=O)[C@@H](N)Cc3ccccc3)C(C)C)C(C)C)cc2)cc1)C(C)C)C(=O)NCC(=O)O [F2-Azb-F2] (H-FPGVGFPGVG[X2]FPGVGFPGVG-OH) | 444 nm | 354 nm |  |  | low water solubility |
